Experimental data taken from article PMC2713373 (Biochemistry, 2009).

Target: MtmOIV (Streptomyces argillaceus, UniProt Q194P4)
Assay: X-ray crystal structure, […] Å
Type: binding
Conditions: non-covalently bound, IN conformation

Cc1cc2nc3c(=O)[nH]c(=O)nc-3n(C[C@H](O)[C@H](O)[C@H](O)COP(=O)(O)OP(=O)(O)OC[C@H]3O[C@@H](n4cnc5c(N)ncnc54)[C@H](O)[C@@H]3O)c2cc1C [FAD]
X-ray crystal structure, 2.9 Å: The FAD cofactor was found non-covalently bound in the crystal structure
